Laboratory results taken from publication PMC5724825, “Structure-activity studies of Mdm2/Mdm4-binding stapled peptides comprising non-natural amino acids” (PLoS ONE, 2017).
Each block holds one molecule with its values, some of them ahead of it. Bridge positions count the residues as written; N and C are the ends. Square brackets hold non-standard residues; d marks the D form. Trp(6-Cl) = N[C@@H](Cc1c[nH]c2cc(Cl)ccc12)C(=O)O; Trp(6-Me) = Cc1ccc2c(C[C@H](N)C(=O)O)c[nH]c2c1; S8 = C=CCCCCCC[C@](C)(N)C(=O)O; S5 = C=CCCC[C@](C)(N)C(=O)O; FAM = carboxyfluorescein

Assays:
[1] = target: T1, Mdm4-L98V (amino acids 1–108) (Homo sapiens, UniProt O15151, L98V); assay: Competitive fluorescence anisotropy, Mdm4-L98V; format: binding; conditions: from Table 2
T1 construct: Mdm4 and Mdm4-L98V (amino acids 1–108) were cloned with C-terminal 6xHIS tags; made in house; host or cells: Escherichia coli BL21(DE3)
T1 sequence (O15151 1-108 L98V): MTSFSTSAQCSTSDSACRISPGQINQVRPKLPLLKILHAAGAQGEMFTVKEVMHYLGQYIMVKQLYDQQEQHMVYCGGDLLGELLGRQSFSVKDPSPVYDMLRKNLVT
Protocol: (§1) Mdm4 and Mdm4-L98V (amino acids 1–108) were cloned with C-terminal 6xHIS tags. The constructs were then transformed into Escherichia coli BL21(DE3) (Invitrogen) competent cells. Cells were grown in LB medium at 37°C and induced at OD600 nm of 0.6 at 25°C with 0.25 mM IPTG and at 16°C with 1 mM IPTG for Mdm4-WT and Mdm4-L98V respectively. After overnight induction, the cells were harvested by centrifugation, resuspended in His-binding buffer (50 mM Bis-Tris pH 6.5, 1M NaCl, 20 mM imidazole, 0.5 mM DTT), and lysed by sonication. After centrifugation for 60 mins at 19,000 × g at 4°C, the cell lysate was then applied to a 1 mL HisTrap FF column (GE Healthcare) pre-equilibrated in His-binding buffer, washed and eluted off the column with His-elution buffer (50 mM Bis-Tris pH 6.5, 1M NaCl, 500 mM imidazole, 0.5 mM DTT) with a gradient elution of 35% elution buffer in 5 column volumes, followed by 35% to 100% elution buffer over 80 column volumes. Protein purity as assessed by SDS-PAGE was ~ 90%, and the fractions were pooled and buffer exchanged into 50 mM Bis-Tris pH 6.5, 350 mM NaCl, 1 mM DTT. The proteins were then concentrated using Amicon-Ultra (3 kDa MWCO) concentrator (Millipore).
(§2) Fluorescence anisotropy assays were performed as previously described. Titrations of purified Mdm2/Mdm4 proteins were incubated with 50 nM of carboxyfluorescein (FAM) labelled 12–1 peptide (FAM-[…]-NH2) to initially determine the dissociation constants for the peptide-protein interactions. Apparent Kds of peptides were next determined by competitive fluorescence anisotropy. Titrations of peptides were carried out at constant concentrations of Mdm2/Mdm2-M62A/Mdm4 (150 nM), Mdm4-L98V (250 nM) and labelled peptide (50 nM). Anisotropy measurements were carried out using the Envision Multilabel Reader (PerkinElmer). All experiments were carried out in PBS (2.7 mM KCl, 137 mM NaCl, 10 mM Na2HPO4 and 2 mM KH2PO4, pH 7.4), 4% DMSO and 0.1% Tween-20 buffer. All titrations were carried out in duplicate (3–6 repeats). Curve fitting was carried out using Prism (GraphPad).

Mdm2 (amino acids 6–125) [2] = target: T2, Mdm2 (amino acids 6–125) (Homo sapiens, UniProt Q00987); assay: Competitive fluorescence anisotropy, Mdm2; format: binding; parameters: Mdm2 (amino acids 6–125) was cloned as a GST-fusion protein; GST (N, cleaved yes); made in house; host or cells: Escherichia coli BL21(DE3) pLysS; conditions: from Table 2
Mdm4 (amino acids 1–108) [3] = target: T3, Mdm4 (amino acids 1–108) (Homo sapiens, UniProt O15151); assay: Competitive fluorescence anisotropy, Mdm4; format: binding; conditions: from Table 2
T3 construct: Mdm4 and Mdm4-L98V (amino acids 1–108) were cloned with C-terminal 6xHIS tags; made in house; host or cells: Escherichia coli BL21(DE3)
T3 sequence (O15151 1-108): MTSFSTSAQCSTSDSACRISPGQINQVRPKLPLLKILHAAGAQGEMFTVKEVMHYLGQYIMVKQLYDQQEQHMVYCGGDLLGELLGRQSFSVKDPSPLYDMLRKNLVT
Protocol: as §1, §2

Mdm2 (amino acids 6–125) [4] = target: T2, Mdm2 (amino acids 6–125); parameters: Mdm2 (amino acids 6–125) was cloned as a GST-fusion protein; GST (N, cleaved yes); made in house; host or cells: Escherichia coli BL21(DE3) pLysS; conditions: earlier series; cited from earlier work
Description: In common with all reported high-affinity binders, these peptides incorporate a signature p53-derived interacting motif comprising F, W and L residues that respectively dock into discrete hydrophobic pockets in the N-terminal domain of Mdm2 [13]. […] The ...

[5] = tested on: p53 transactivation in T22 cells; assay: p53 reporter assay in T22 cells (β galactosidase); format: cell-based; conditions: 5, 10, 20 μM peptide, 18 hours, DMEM with 10% FBS
Protocol: Dulbecco’s Minimal Eagle Medium (DMEM) with 10% fetal bovine serum (FBS) and penicillin/streptomycin was used to maintain cells. T22 cells stably transfected with a p53 responsive β galactosidase reporter, were seeded into 96-well plates (8000 cells per well). 24 hours later, cells were treated with compounds/peptide for 18 hours in DMEM with 10% FBS. β galactosidase activity was measured using the FluoReporter LacZ/Galactosidase Quantitation kit (Invitrogen). Measurements were carried out on a Safire II multiplate reader (TECAN). All experiments were carried out in duplicate.
Fig 4 T22 reporter assay measuring p53 transactivation. A. Cells were treated with increasing concentrations (5, 10, 20 μM) of indicated peptide ligands and p53 activity determined by measuring β galactosidase levels. The small molecule Mdm2 inhibitor Nutlin (10 μM) was used as positive control. Activity is expressed as fold increase over cells treated with DMSO vehicle only. Values represent average ± SD (n = 2). * p < 0.001 compared to DMSO control. B. Lactate dehydrogenase release assay indicating no significant membrane disruption observed for increasing concentrations (2, 10, 20 μM) of indicated ligands compared to vehicle (DMSO) and positive maximum lysis control (MLC). Values represent average ± SD (n = 3).

[6] = tested on: activation of the p53 tumour suppressor; conditions: earlier series; cited from earlier work
Description: We have previously described a series of peptide antagonists targeting Mdm2, a key regulator of p53 function. In common with all reported high-affinity binders, these peptides incorporate a signature p53-derived interacting motif comprising F, W and L residues that respectively dock into discrete hydrophobic pockets in the N-terminal domain of Mdm2 [13]. This series exemplified significant enhancements in binding affinity, cellular uptake and activity arising from incorporation of a hydrocarbon tether and replacement of the tryptophan with the non-natural L-6-chlorotryptophan. The ...

Mdm4 (amino acids 1–108) [7] = target: T4, Mdm4 (amino acids 1–108) (UniProt O15151 1-108); assay: fluorescence polarisation; competitive fluorescence anisotropy, apparent Kd; peptides titrated at constant Mdm2/Mdm2-M62A/Mdm4 (150 nM) or Mdm4-L98V (250 nM) and FAM-labelled 12-1 peptide (50 nM); PBS pH 7.4, 4% DMSO, 0.1% Tween-20; conditions: both partners purified
T4 construct: Mdm4 (also known as MdmX), amino acids 1-108; also called Mdm4-WT; MdmX; source: E. coli BL21(DE3), purified (HisTrap FF)
T4 sequence (looked up): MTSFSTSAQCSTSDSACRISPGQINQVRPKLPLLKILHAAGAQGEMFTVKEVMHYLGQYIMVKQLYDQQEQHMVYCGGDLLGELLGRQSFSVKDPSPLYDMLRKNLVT

[8] = target: T5, Mdm4-L98V (amino acids 1–108) (UniProt O15151 1-108, L98V); assay: as above; conditions: both partners purified
T5 construct: Mdm4 (also known as MdmX), amino acids 1-108, with L98V; also called L98V mutant; source: E. coli BL21(DE3), purified (HisTrap FF)
T5 sequence (looked up): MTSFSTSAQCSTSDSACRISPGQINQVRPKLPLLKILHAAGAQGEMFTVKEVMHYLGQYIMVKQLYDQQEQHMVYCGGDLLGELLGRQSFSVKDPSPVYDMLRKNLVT

Mdm4 (amino acids 1–108) [9] = target: T4, Mdm4 (amino acids 1–108); assay: as above; conditions: both partners purified; remark: listed apart in the source
[10] = target: T5, Mdm4-L98V (amino acids 1–108); assay: as above; conditions: both partners purified; remark: listed apart in the source
[11] = target: T6, Mdm2-M62A (amino acids 6–125) (UniProt Q00987 6-125, M62A); assay: as above; conditions: both partners purified
T6 construct: Cloned in pGEX-6P-1; source: E. coli BL21(DE3) pLysS, purified (GSTrap, on-column PreScission cleavage, Resource S cation exchange)

Mdm2 (amino acids 6–125) [12] = target: T7, Mdm2 (amino acids 6–125) (UniProt Q00987 6-125); assay: as above; conditions: both partners purified
T7 construct: Cloned in pGEX-6P-1; also called Mdm2 N-terminal domain; source: E. coli BL21(DE3) pLysS, purified (GSTrap, on-column PreScission cleavage, Resource S cation exchange)

Increase in binding affinity to Mdm4-L98V over binding to Mdm4 [1]: ~ 1.4 fold
Molecule: CC(=O)N[C@H](C(=O)N[C@@H](CO)C(=O)N[C@@H](Cc1ccccc1)C(=O)N[C@]1(C)CCCCCCC=CCCC[C@@](C)(C(N)=O)NC(=O)[C@H](CC(C)C)NC(=O)[C@H](CC(C)C)NC(=O)[C@H](C)NC(=O)[C@H](Cc2c[nH]c3ccccc23)NC(=O)[C@H](Cc2ccc(O)cc2)NC(=O)[C@H](CCC(=O)O)NC1=O)[C@@H](C)O [PM2]

Reduced binding to Mdm2 of pre-stapled peptide compared to M011 (Mdm2 (amino acids 6–125) [2]): ~ 20 fold
Reduced binding to Mdm4 of pre-stapled peptide compared to M011 (Mdm4 (amino acids 1–108) [3]): ~ 4 fold
Molecule: C=CCCCCCC[C@@](C)(NC(=O)[C@H](Cc1ccccc1)NC(=O)[C@H](CO)NC(=O)[C@@H](NC(C)=O)[C@@H](C)O)C(=O)N[C@@H](CCC(=O)O)C(=O)N[C@@H](Cc1ccc(O)cc1)C(=O)N[C@@H](Cc1c[nH]c2cc(Cl)ccc12)C(=O)N[C@@H](C)C(=O)N[C@@H](CC(C)C)C(=O)N[C@@H](CC(C)C)C(=O)N[C@@](C)(CCCC=C)C(N)=O [M011-L]

Increase in binding affinity to Mdm4-L98V over binding to Mdm4 [1]: ~ 4.6 fold
Increased Mdm2 binding affinity over parental stapled peptide lacking the 6-chloro modification (PM2) (Mdm2 (amino acids 6–125) [2]): ~ 8 fold
Binding to Mdm2 over Mdm4 (affinity for Mdm4 reduced compared to Mdm2) (Mdm4 (amino acids 1–108) [3]): ~ 50 fold
Reduced binding to Mdm4 compared to PM2 (Mdm4 (amino acids 1–108) [3]): ~ 3 fold
Molecule: CC(=O)N[C@H](C(=O)N[C@@H](CO)C(=O)N[C@@H](Cc1ccccc1)C(=O)N[C@]1(C)CCCCCCC=CCCC[C@@](C)(C(N)=O)NC(=O)[C@H](CC(C)C)NC(=O)[C@H](CC(C)C)NC(=O)[C@H](C)NC(=O)[C@H](Cc2c[nH]c3cc(Cl)ccc23)NC(=O)[C@H](Cc2ccc(O)cc2)NC(=O)[C@H](CCC(=O)O)NC1=O)[C@@H](C)O [M011]
Increase in Mdm2 binding affinity over the parental peptide (Mdm2 (amino acids 6–125) [4]): ~ 7 fold
More active than M012 in T22 p53 reporter assay [5]: ~ 20%
Enhanced cellular activity over the parental peptide [6]: ~ 59 fold

Increase in binding affinity to Mdm4-L98V over binding to Mdm4 [1]: ~ 2.5 fold
Change in affinity for Mdm2 versus M011 (Mdm2 (amino acids 6–125) [2]): no change in affinity for Mdm2
Improved binding to Mdm4 versus M011 (Mdm4 (amino acids 1–108) [3]): ~ 1.7 fold
Molecule: CC(=O)N[C@H](C(=O)N[C@@H](CO)C(=O)N[C@@H](Cc1ccccc1)C(=O)N[C@]1(C)CCCCCCC=CCCC[C@@](C)(C(=O)N[C@@H](CO)C(=O)N[C@@H](C)C(=O)N[C@@H](C)C(N)=O)NC(=O)[C@H](CC(C)C)NC(=O)[C@H](CC(C)C)NC(=O)[C@H](C)NC(=O)[C@H](Cc2c[nH]c3cc(Cl)ccc23)NC(=O)[C@H](Cc2ccc(O)cc2)NC(=O)[C@H](CCC(=O)O)NC1=O)[C@@H](C)O [VIP160]

Kd (Mdm4 (amino acids 1–108) [7]): 1.39 µM
Kd [8]: 0.594 µM
Molecule: Ac-TSF[S5]EY[Trp(6-Cl)]ALL[S8]-NH2 (bridges not given here) [M011-L, linear precursor of M011]

Kd [8]: 0.385 µM
Molecule: Ac-TSF[S5]EY[Trp(6-Me)]ALL[S8]-NH2 (staple 4-11; also: Trp(6-Me) D/L mixture, not separated) [M012 stapled peptide]

Kd (Mdm4 (amino acids 1–108) [7]): 0.101 µM
Kd [8]: 0.0723 µM
B1: PM2 stapled peptide (peptide)
chain: TSFXEYWALLL
modifications: not fully specified; N-terminus acetylated; C-terminus amidated; (S)-2-(4′pentenyl) alanine at position 4 and (S)-2-(7′-octenyl) alanine at position 11, fused via olefin metathesis (i, i+7 hydrocarbon linkage)

Kd (Mdm4 (amino acids 1–108) [7]): 0.411 µM
Kd [8]: 0.165 µM
Molecule: Ac-TSF[S5]EY[Trp(6-Me)]ALL[S8]-NH2 (bridges not given here; also: Trp(6-Me) not enantiomerically pure) [M012-L, linear precursor of M012]

binding result (Mdm4 (amino acids 1–108) [9]): binds
binding result [10]: binds
binding result [11]: binds
binding result (Mdm2 (amino acids 6–125) [12]): binds
B2: carboxyfluorescein (FAM) labelled 12–1 peptide (peptide)
peptide: {FAM}-RFMDYWEGL-NH2
notes: 12-1 peptide, tracer of the fluorescence anisotropy assays; also called labelled peptide; source: synthetic peptide

Kd (Mdm4 (amino acids 1–108) [7]): 0.335 µM
Kd [8]: 0.0723 µM
B3: M011 stapled peptide (peptide)
chain: TSFXEYWALLL
modifications: not fully specified; N-terminus acetylated; C-terminus amidated; L-6-chlorotryptophan at W23 (p53 numbering); (S)-2-(4′pentenyl) alanine at position 4 and (S)-2-(7′-octenyl) alanine at position 11, fused via olefin metathesis (i, i+7 hydrocarbon linkage)
